Experimental data reported in US20230148600A1, “PESTICIDALLY ACTIVE THIOPHENE DERIVATIVES” (SYNGENTA PARTICIPATIONS AG, priority 2017, published 2023).

Experiments:
Format in all cases: in vivo
[1] = test system: Thrips Tabaci (Onion Thrips); experiment: Thrips tabaci (onion thrips) feeding/contact activity; settings: foliar, 144 h, application rate 200 ppm, sunflower leaf discs sprayed, thrips population of mixed ages, assessed 6 days after infestation
Description: Thrips Tabaci (Onion Thrips) Feeding/Contact Activity
(§1) Sunflower leaf discs were placed on agar in 24-well microtiter plates and sprayed with aqueous test solutions prepared from 10 ′000 ppm DMSO stock solutions. After drying the leaf discs were infested with a thrips population of mixed ages. The samples were assessed for mortality 6 days after infestation.

[2] = test system: Euschistus Heros (Neotropical BROWN Stink Bug); experiment: Euschistus heros (neotropical brown stink bug) feeding/contact activity; settings: 120 h, application rate 200 ppm, soybean leaves sprayed, N2 nymphs, assessed 5 days after infestation
Description: Euschistus Heros (Neotropical BROWN Stink Bug) Feeding/Contact Activity
Soybean leaves on agar in 24-well microtiter plates were sprayed with aqueous test solutions prepared from 10 ′000 ppm DMSO stock solutions. After drying the leaves were infested with N2 nymphs. The samples were assessed for mortality 5 days after infestation.

[3] = test system: Diabrotica Balteata (Corn Root Worm); experiment: Diabrotica balteata (corn root worm) mortality on sprayed maize sprouts; settings: 96 h, application rate 200 ppm, L2 larvae, assessed 4 days after infestation
Description: Diabrotica Balteata (Corn Root Worm)
Maize sprouts placed onto an agar layer in 24-well microtiter plates were treated with aqueous test solutions prepared from 10 ′000 ppm DMSO stock solutions by spraying. After drying, the plates were infested with L2 larvae (6 to 10 per well). The samples were assessed for mortality 4 days after infestation.

[4] = test system: Tetranychus Urticae (Two-Spotted Spider Mite); experiment: Tetranychus urticae (two-spotted spider mite) feeding/contact activity; settings: foliar, 192 h, application rate 200 ppm, bean leaf discs sprayed, mite population of mixed ages, assessed 8 days after infestation, read-out: mortality on mixed population (mobile stages)
Description: Tetranychus Urticae (Two-Spotted Spider Mite) Feeding/Contact Activity
as §1, with “Bean” for “Sunflower”, “discs” for “discs were placed”, “were” for “and”, “mite” for “thrips”, “on mixed population (mobile stages) 8” for “6”

[5] = test system: Plutella Xylostella (Diamond Back Moth); experiment: Plutella xylostella (diamond back moth) feeding/contact activity; settings: 120 h, application rate 200 ppm, artificial diet treated by pipetting, L2 larvae, assessed 5 days after infestation
Description: Plutella Xylostella (Diamond Back Moth) Feeding/Contact Activity
24-well microtiter plates with artificial diet were treated with aqueous test solutions prepared from 10 ′000 ppm DMSO stock solutions by pipetting. After drying, the plates were infested with L2 larvae (10 to 15 per well). The samples were assessed for mortality 5 days after infestation.

[6] = test system: Myzus Persicae (Green Peach Aphid); experiment: Myzus persicae (green peach aphid) feeding/contact activity; settings: foliar, 144 h, application rate 200 ppm, sunflower leaf discs sprayed, aphid population of mixed ages, assessed 6 days after infestation
Description: Myzus Persicae (Green Peach Aphid) Feeding/Contact Activity
Sunflower leaf discs were placed onto agar in a 24-well microtiter plate and sprayed with aqueous test solutions prepared from 10 ′000 ppm DMSO stock solutions. After drying, the leaf discs were infested with an aphid population of mixed ages. The samples were assessed for mortality 6 days after infestation.

[7] = test system: Spodoptera Littoralis (Egyptian Cotton Leaf Worm); experiment: Spodoptera littoralis (Egyptian cotton leaf worm) feeding/contact activity; settings: foliar, 72 h, application rate 200 ppm, cotton leaf discs sprayed, L1 larvae, assessed 3 days after infestation
Description: Spodoptera Littoralis (Egyptian Cotton Leaf Worm) Feeding/Contact Activity
Cotton leaf discs were placed onto agar in 24-well microtiter plates and sprayed with aqueous test solutions prepared from 10 ′000 ppm DMSO stock solutions. After drying the leaf discs were infested with five L1 larvae. The samples were assessed for mortality 3 days after infestation.

Measured: mortality at 200 ppm

N#Cc1sc(-c2cnn(-c3c(Cl)cc(C(F)(C(F)(F)F)C(F)(F)F)cc3Cl)c2)cc1C(=O)NC1CC1 [Example 1, 2-cyano-N-cyclopropyl-5-[1-[2,6-dichloro-4-[1,2,2,2-tetrafluoro-1-(trifluoromethyl)ethyl]phenyl]pyrazol-4-yl]thiophene-3-carboxamide]
≥ 80%: all assays above

O=C(NC1CC1)c1cc(-c2cnn(-c3c(Cl)cc(C(F)(C(F)(F)F)C(F)(F)F)cc3Cl)c2)sc1Cl [Example 2, 2-chloro-N-cyclopropyl-5-[1-[2,6-dichloro-4-[1,2,2,2-tetrafluoro-1-(trifluoromethyl)ethyl]phenyl]pyrazol-4-yl]thiophene-3-carboxamide]
≥ 80%: all assays above

N#Cc1sc(-c2cnn(-c3c(Cl)cc(C(F)(C(F)(F)F)C(F)(F)F)cc3Cl)c2)cc1C(=O)NC1(C#N)CC1 [Example 3, 2-cyano-N-(1-cyanocyclopropyl)-5-[1-[2,6-dichloro-4-[1,2,2,2-tetrafluoro-1-(trifluoromethyl)ethyl]phenyl]pyrazol-4-yl]thiophene-3-carboxamide]
not listed: [6]
≥ 80%: all other assays above

N#CC1(NC(=O)c2cc(-c3cnn(-c4c(Cl)cc(C(F)(C(F)(F)F)C(F)(F)F)cc4Cl)c3)sc2Cl)CC1 [Example 4, 2-chloro-N-(1-cyanocyclopropyl)-5-[1-[2,6-dichloro-4-[1,2,2,2-tetrafluoro-1-(trifluoromethyl)ethyl]phenyl]pyrazol-4-yl]thiophene-3-carboxamide]
≥ 80%: all assays above

Cc1cc(C(F)(C(F)(F)F)C(F)(F)F)cc(C)c1-n1cc(-c2cc(C(=O)NC3CC3)c(C#N)s2)cn1 [Example 5, 2-cyano-N-cyclopropyl-5-[1-[2,6-dimethyl-4-[1,2,2,2-tetrafluoro-1-(trifluoromethyl)ethyl]phenyl]pyrazol-4-yl]thiophene-3-carboxamide]
not listed: [1] | [3]
≥ 80%: all other assays above

N#CC1(NC(=O)c2cc(-c3cnn(-c4ccc(C(F)(C(F)(F)F)C(F)(F)F)cc4Cl)c3)sc2Cl)CC1 [Example 6, 2-chloro-5-[1-[2-chloro-4-[1,2,2,2-tetrafluoro-1-(trifluoromethyl)ethyl]phenyl]pyrazol-4-yl]-N-(1-cyanocyclopropyl)thiophene-3-carboxamide]
≥ 80%: [2] | [4] | [5] | [7]

N#CC1(NC(=O)c2cc(-c3cnn(-c4c(Cl)cc(C(F)(C(F)(F)F)C(F)(F)F)cc4Br)c3)sc2Cl)CC1 [Example 7, 5-[1-[2-bromo-6-chloro-4-[1,2,2,2-tetrafluoro-1-(trifluoromethyl)ethyl]phenyl]pyrazol-4-yl]-2-chloro-N-(1-cyanocyclopropyl)thiophene-3-carboxamide]
≥ 80%: [2] | [4] | [5] | [7]

N#Cc1sc(-c2cnn(-c3ccc(C(F)(C(F)(F)F)C(F)(F)F)cc3Cl)c2)cc1C(=O)NC1CC1 [Example 8, 5-[1-[2-chloro-4-[1,2,2,2-tetrafluoro-1-(trifluoromethyl)ethyl]phenyl]pyrazol-4-yl]-2-cyano-N-cyclopropyl-thiophene-3-carboxamide]
not listed: [1] | [3]
≥ 80%: all other assays above

Cc1cc(C(F)(C(F)(F)F)C(F)(F)F)cc(C)c1-n1cc(-c2cc(C(=O)NC3(C#N)CC3)c(Cl)s2)cn1 [Example 10, 2-chloro-N-(1-cyanocyclopropyl)-5-[1-[2,6-dimethyl-4-[1,2,2,2-tetrafluoro-1-(trifluoromethyl)ethyl]phenyl]pyrazol-4-yl]thiophene-3-carboxamide]
not listed: [6]
≥ 80%: all other assays above

CCN(C(=O)c1cc(-c2cn(-c3c(Cl)cc(C(F)(C(F)(F)F)C(F)(F)F)cc3Cl)nn2)sc1C#N)C1CC1 [Example 11, 2-cyano-N-cyclopropyl-5-[1-[2,6-dichloro-4-[1,2,2,2-tetrafluoro-1-(trifluoromethyl)ethyl]phenyl]triazol-4-yl]-N-ethyl-thiophene-3-carboxamide]
not listed: [2] | [6]
≥ 80%: all other assays above

CN(C(=O)c1cc(-c2cn(-c3c(Cl)cc(C(F)(C(F)(F)F)C(F)(F)F)cc3Cl)nn2)sc1C#N)C1CC1 [Example 12, 2-cyano-N-cyclopropyl-5-[1-[2,6-dichloro-4-[1,2,2,2-tetrafluoro-1-(trifluoromethyl)ethyl]phenyl]triazol-4-yl]-N-methyl-thiophene-3-carboxamide]
not listed: [6]
≥ 80%: all other assays above

N#Cc1sc(-c2cn(-c3c(Cl)cc(C(F)(C(F)(F)F)C(F)(F)F)cc3Cl)nn2)cc1C(=O)NC1CC1 [Example 13, 2-cyano-N-cyclopropyl-5-[1-[2,6-dichloro-4-[1,2,2,2-tetrafluoro-1-(trifluoromethyl)ethyl]phenyl]triazol-4-yl]thiophene-3-carboxamide]
≥ 80%: [1] | [3] | [5] | [7]

CCN(C(=O)c1cc(-c2cn(-c3c(Cl)cc(C(F)(C(F)(F)F)C(F)(F)F)cc3Cl)nn2)sc1Cl)C1(C#N)CC1 [Example 14, 2-chloro-N-(1-cyanocyclopropyl)-5-[1-[2,6-dichloro-4-[1,2,2,2-tetrafluoro-1-(trifluoromethyl)ethyl]phenyl]triazol-4-yl]-N-ethyl-thiophene-3-carboxamide]
≥ 80%: [1] | [3] | [5] | [7]

CN(C(=O)c1cc(-c2cn(-c3c(Cl)cc(C(F)(C(F)(F)F)C(F)(F)F)cc3Cl)nn2)sc1Cl)C1(C#N)CC1 [Example 15, 2-chloro-N-(1-cyanocyclopropyl)-5-[1-[2,6-dichloro-4-[1,2,2,2-tetrafluoro-1-(trifluoromethyl)ethyl]phenyl]triazol-4-yl]-N-methyl-thiophene-3-carboxamide]
≥ 80%: [1] | [3] | [5] | [7]

N#CC1(NC(=O)c2cc(-c3cn(-c4c(Cl)cc(C(F)(C(F)(F)F)C(F)(F)F)cc4Cl)nn3)sc2Cl)CC1 [Example 16, 2-chloro-N-(1-cyanocyclopropyl)-5-[1-[2,6-dichloro-4-[1,2,2,2-tetrafluoro-1-(trifluoromethyl)ethyl]phenyl]triazol-4-yl]thiophene-3-carboxamide]
≥ 80%: [1] | [7]
